Assay [1] addresses T1, human orexin type 1 receptor (hOX1R) (Homo sapiens, UniProt O43613).
T1 construct: expressed in transfected cells
T1 sequence (O43613 1-425): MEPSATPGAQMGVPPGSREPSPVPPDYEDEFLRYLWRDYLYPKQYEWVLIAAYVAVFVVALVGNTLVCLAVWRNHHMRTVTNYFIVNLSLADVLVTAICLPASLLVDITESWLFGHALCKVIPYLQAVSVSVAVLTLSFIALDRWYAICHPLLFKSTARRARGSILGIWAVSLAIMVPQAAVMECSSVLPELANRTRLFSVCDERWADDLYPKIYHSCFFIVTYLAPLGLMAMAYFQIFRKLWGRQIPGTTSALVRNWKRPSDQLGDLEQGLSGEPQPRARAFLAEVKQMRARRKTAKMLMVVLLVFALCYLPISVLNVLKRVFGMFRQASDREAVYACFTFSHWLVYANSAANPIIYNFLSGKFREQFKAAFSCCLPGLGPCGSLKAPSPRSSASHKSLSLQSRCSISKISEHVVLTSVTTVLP
Kind of assay: Measurement of orexin type 1 receptor agonist activity (FLIPR TETRA intracellular Ca2+ fluorescence). The format is cell-based. The settings on record: CHO cells expressing hOX1R; agonist activity, Ca2+ fluorescence; read-out: hOX1 pEC50 (converted). How it is done:
(§1) Stable cell line generation. Obtainment of cells stably expressing either human orexin type 2 or human orexin type 1 receptor: to obtain a stable cell line the Orexin receptor cDNA was inserted into pcDNA3.1(+) plasmid vector and clones identified by G418 drug resistance selection. […] A single clone for OX2R—CHO and OX1R—CHO were grown in bulk and frozen to generate a cell bank for routine screening.
(§2) Measurement of orexin type 1 receptor agonist activity. Chinese hamster ovary (CHO) cells expressing human orexin type 1 receptor (hOX1R) were seeded in each well of 384 well black clear bottom plates (BD Flacon) at 10,000 cells per well and cultured for 24 h in an Ham's F12 (Gibco) medium containing 10% fetal calf serum (Sigma Aldrich) under the conditions of 37° C., 5% CO2. After removal of the medium, 50 μL of assay buffer 1 (0.1% bovine serum albumin (Sigma Aldrich), 20 mM HEPES (Molecular Dimensions), […] probenecid (Sigma Aldrich), 1× Calcium 5 dye (Molecular Devices) in Hank's balanced salt solution (Invitrogen)) was added, and the cells were incubated for 60 min under the conditions of 37° C., 5% CO2. A test peptide was dissolved in dimethyl sulfoxide (Sigma Aldrich) to 1 mM, and then diluted with assay buffer 2 (20 mM HEPES, Hank's balanced salt solution, 0.1% bovine serum albumin). For the reaction, a test peptide solution (10 μl) was added using Fluorescent Imaging Plate Reader TETRA (FLIPR TETRA: manufactured by Molecular Devices), a fluorescence value (excitation wavelength 488 nm, measurement wavelength 570 nm) of each well was measured every one second for 2 min, and the agonist activity was determined using the area of the fluorescence value as an indicator of intracellular Ca^2+ concentration. The agonist activity of the test peptide was calculated assuming that the fluorescence value of the well added with only the dilution buffer was 0% and the fluorescence value of the well added with 10 nM human orexin A (Tocris) buffer was 100%. As used herein, Emax indicates the value at 1 μM concentration when orexin A is converted to a full agonist (maximum value of agonist activity: 100%).

In assay [2] the target is T2, human orexin type 2 receptor (hOX2R) (Homo sapiens, UniProt O43614).
T2 construct: expressed in transfected cells
T2 sequence (O43614 1-444): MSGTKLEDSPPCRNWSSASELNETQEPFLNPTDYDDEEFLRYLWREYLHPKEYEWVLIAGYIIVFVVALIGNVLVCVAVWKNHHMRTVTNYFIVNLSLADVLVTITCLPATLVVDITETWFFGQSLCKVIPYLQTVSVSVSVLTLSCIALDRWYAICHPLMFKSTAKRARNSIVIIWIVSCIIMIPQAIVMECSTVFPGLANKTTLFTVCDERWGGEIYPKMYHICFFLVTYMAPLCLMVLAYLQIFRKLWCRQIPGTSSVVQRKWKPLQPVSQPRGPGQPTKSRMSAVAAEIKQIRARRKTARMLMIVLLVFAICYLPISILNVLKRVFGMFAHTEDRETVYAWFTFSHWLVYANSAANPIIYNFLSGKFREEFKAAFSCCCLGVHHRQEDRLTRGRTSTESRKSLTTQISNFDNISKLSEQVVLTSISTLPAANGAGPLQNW
Put plainly: Measurement of orexin type 2 receptor agonist activity (FLIPR TETRA intracellular Ca2+ fluorescence). It counts as cell-based. The settings on record: CHO cells expressing hOX2R; agonist activity, Ca2+ fluorescence; read-out: hOX2 pEC50 (converted). As for the experimental part:
as §1
as §2, with “type 2” for “type 1”, “receptor (hOX2R)” for “receptor (hOX1R) were”

SMILES strings stand for the structures. Square brackets hold non-standard residues; d marks the D form. Peptide text beside a SMILES is read from it. * marks the point of attachment. X8 = CCCCCC[C@H](NC(=O)[C@@H](NC[C@H](CC(C)C)N*)[C@@H](C)O)C(N)=O; hArg(Et2) = CCN=C(NCC)NCCCC[C@H](N)C(=O)O; X4 = CN(C)CCOCCOCCOCCOCCOCCOCCC(=O)*; Gly(NCH2CH2Ph) = O=C(O)CNCCc1ccccc1; PEG6 = NCCOCCOCCOCCOCCOCCOCCC(=O)O; Hyp = O=C(O)[C@@H]1C[C@@H](O)CN1; Hpg = N[C@H](C(=O)O)c1ccc(O)cc1; NMeN = CN[C@@H](CC(N)=O)C(=O)O; Aoc(2) = CCCCCC[C@H](N)C(=O)O; PEG4 = NCCOCCOCCOCCOCCC(=O)O; Phg = N[C@H](C(=O)O)c1ccccc1 A value given as a limit tells only on which side of the number the result lay.

On to `CCCCCC[C@H](NC(=O)[C@@H](NC[C@H](CC(C)C)NC(=O)[C@@H](NC(=O)CNC(=O)[C@@H](NC(=O)[C@H](C)NC(=O)[C@@H]1C[C@@H](O)CN1C(=O)[C@H](CC(N)=O)NC(=O)CN(CCc1ccccc1)C(=O)CCOCCOCCOCCOCCOCCOCCN)c1ccccc1)[C@@H](C)CC)[C@@H](C)O)C(N)=O` [Peptide 1] (H-[PEG6][Gly(NCH2CH2Ph)]N[Hyp]A[Phg]GI-X8), for which the values for the EC50 in assay [1] and in assay [2] were > 10 nM and < 0.1 nM, respectively.
In the same order, the values of `CCCCCC[C@H](NC(=O)[C@@H](NC(=O)[C@H](CC(C)C)NC(=O)[C@@H](NC(=O)CNC(=O)[C@@H](NC(=O)[C@H](C)NC(=O)[C@@H]1C[C@@H](O)CN1C(=O)[C@H](CC(N)=O)NC(=O)CN(CCc1ccccc1)C(=O)[C@H](CCCNC(=N)N)NC(=O)CCOCCOCCOCCOCCOCCOCCN(C)C)c1ccccc1)[C@@H](C)CC)[C@@H](C)O)C(N)=O` [Peptide 2] (X4-R[Gly(NCH2CH2Ph)]N[Hyp]A[Phg]GILT[Aoc(2)]-NH2) are 1 to 10 nM and < 0.1 nM.
For the molecule `CCCCCC[C@H](NC(=O)[C@@H](NC(=O)[C@H](CC(C)C)NC(=O)[C@@H](NC(=O)CNC(=O)[C@@H](NC(=O)[C@H](C)NC(=O)[C@@H]1C[C@@H](O)CN1C(=O)[C@H](CC(N)=O)NC(=O)CN(CCc1ccccc1)C(=O)[C@H](CCCNC(=N)N)NC(=O)CCOCCOCCOCCOCCOCCOCCN)c1ccccc1)[C@@H](C)CC)[C@@H](C)O)C(N)=O` [Peptide 3] (H-[PEG6]R[Gly(NCH2CH2Ph)]N[Hyp]A[Phg]GILT[Aoc(2)]-NH2), the EC50 in assay [1] is > 10 nM; in assay [2] it was < 0.1 nM.
As to `CCCCCC[C@H](NC(=O)[C@@H](NC(=O)[C@H](CC(C)C)NC(=O)[C@@H](NC(=O)CNC(=O)[C@@H](NC(=O)[C@H](C)NC(=O)[C@@H]1C[C@@H](O)CN1C(=O)[C@H](CC(N)=O)NC(=O)CN(CCc1ccccc1)C(=O)[C@@H](N)CCCCN/C(=N/CC)NCC)c1ccccc1)[C@@H](C)CC)[C@@H](C)O)C(N)=O` [Peptide 4] (H-[hArg(Et2)][Gly(NCH2CH2Ph)]N[Hyp]A[Phg]GILT[Aoc(2)]-NH2), the EC50 in assay [1] is > 10 nM; in assay [2], < 0.1 nM.
In the same order, the values of `CCCCCC[C@H](NC(=O)[C@@H](NC(=O)[C@H](CC(C)C)NC(=O)[C@@H](NC(=O)CNC(=O)[C@@H](NC(=O)[C@H](C)NC(=O)[C@@H]1C[C@@H](O)CN1C(=O)[C@H](CC(N)=O)NC(=O)CN(CCc1ccccc1)C(=O)[C@H](CCCNC(=N)N)NC(=O)CCOCCOCCOCCOCCN)c1ccccc1)[C@@H](C)CC)[C@@H](C)O)C(N)=O` [Peptide 5] (H-[PEG4]R[Gly(NCH2CH2Ph)]N[Hyp]A[Phg]GILT[Aoc(2)]-NH2) are > 10 nM and < 0.1 nM.
For `CCCCCC[C@H](NC(=O)[C@@H](NC(=O)[C@H](CC(C)C)NC(=O)[C@@H](NC(=O)CNC(=O)[C@@H](NC(=O)[C@H](C)NC(=O)[C@@H]1C[C@@H](O)CN1C(=O)[C@H](CC(N)=O)N(C)C(=O)CN(CCc1ccccc1)C(=O)[C@H](CCCNC(=N)N)NC(=O)CCOCCOCCOCCOCCOCCOCCN)c1ccccc1)[C@@H](C)CC)[C@@H](C)O)C(N)=O` [Peptide 6] (H-[PEG6]R[Gly(NCH2CH2Ph)][NMeN][Hyp]A[Phg]GILT[Aoc(2)]-NH2), in that order: > 10 nM and < 0.1 nM.
For `CCCCCC[C@H](NC(=O)[C@@H](NC(=O)[C@H](CC(C)C)NC(=O)[C@@H](NC(=O)CNC(=O)[C@@H](NC(=O)[C@H](C)NC(=O)[C@@H]1C[C@@H](O)CN1C(=O)[C@H](CC(N)=O)NC(=O)CN(CCc1ccccc1)C(=O)[C@@H](N)CCCCN/C(=N/CC)NCC)c1ccc(O)cc1)[C@@H](C)CC)[C@@H](C)O)C(N)=O` [Peptide 7] (H-[hArg(Et2)][Gly(NCH2CH2Ph)]N[Hyp]A[Hpg]GILT[Aoc(2)]-NH2), in that order: > 10 nM and < 0.1 nM.

The values are drawn from patent US20240360175A1, “PEPTIDE DERIVATIVES AND RELATED USES AS OREXIN AGONISTS” (Centessa Pharmaceuticals (UK) Limited, priority 2021, published 2024).
